Test results reported in patent publication US11000033B2, “Ketone or oxime compound, and herbicide” (NISSAN CHEMICAL CORPORATION, priority 2014, dated 2021).

How the values were obtained:
Type in all cases: in vivo
Stellaria media = assay: Test Example 5: herbicidal effect by foliage application, plastic box (symbol P); conditions: 320 g/ha, 3 weeks after application
How it was run: (§1)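 Emulsion formulation, diluted with water to the intended rate, was applied uniformly to leaves by small sprayer. Recipients were 14-day greenhouse-grown seedlings (25° C. to 30° C.). Assessment followed at 3 weeks.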

Abutilon theophrasti = assay: Test Example 5: herbicidal effect by foliage application, plastic box (symbol M); conditions: 320 g/ha, 3 weeks after application
How it was run: as §1

rapeseed = assay: Test Example 5: effect on crop by foliage application, plastic box (symbol g); conditions: 320 g/ha, 3 weeks after application
How it was run: (§2)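 Crop and weed seeds sown in spots in sterilized diluvial soil in plastic boxes and covered with about 1.5 cm soil. Plants raised in a greenhouse at 25° C. to 30° C. for foliar application.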

transplanted rice plant = assay: Test Example 1: effect on crop, application before weed generation in submerged conditions (symbol a); conditions: application herbicide amount 320 g/ha
How it was run: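 Rice at 2.5 leaf stage transplanted into submerged soil (4 cm depth) sown with three weed species; herbicide applied before weed emergence.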

soybean = assay: Test Example 5: effect on crop by foliage application, plastic box (symbol d); conditions: 320 g/ha, 3 weeks after application
How it was run: as §2

[1] = test system: directly sowed rice plant; assay: Test Example 3: effect on crop by foliage application, Wagner pot (symbol b); conditions: application herbicide amount 320 g/ha
How it was run: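 Steps: fill a 1/10000-are Wagner pot with alluvial soil; add water and mix to submerge at 0.1–0.5 cm depth; sow rice plus Echinochloa crus-galli var. crus-galli, Leptochloa chinensis and Cyperus difformis; grow in a 25–30 °C greenhouse.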

Apera spica-venti = assay: Test Example 5: herbicidal effect by foliage application, plastic box (symbol L); conditions: 320 g/ha, 3 weeks after application
How it was run: as §1

Monochoria vaginalis [2] = assay: Test Example 2: herbicidal activity, application during weed generation in submerged conditions (symbol C); conditions: Table 23; application herbicide amount 320 g/ha; grade 0-5 by criteria of Test Example 1
How it was run: (§3)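 Seeds sown in flooded alluvial soil (4 cm water) were grown in a 25-30° C greenhouse. At the one- to two-leaf stage, diluted emulsion of compound was applied to the water surface at a predetermined rate. Effect was scored 3 weeks later.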

Setaria viridis = assay: Test Example 5: herbicidal effect by foliage application, plastic box (symbol G); conditions: 320 g/ha, 3 weeks after application
How it was run: as §1

Avena fatua = assay: Test Example 5: herbicidal effect by foliage application, plastic box (symbol I); conditions: 320 g/ha, 3 weeks after application
How it was run: as §1

Leptochloa chinensis = assay: Test Example 3: herbicidal effect by foliage application, Wagner pot (symbol D); conditions: application herbicide amount 320 g/ha
How it was run: (§4)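 Plants sown in submerged alluvial soil (water depth 0.1–0.5 cm) in a 25–30 °C greenhouse and grown 14 days. An emulsion of the compound diluted in water to a set herbicide amount was sprayed uniformly on foliage. Effect on each plant scored 3 weeks after application.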

corn = assay: Test Example 5: effect on crop by foliage application, plastic box (symbol c); conditions: 320 g/ha, 3 weeks after application
How it was run: as §2

Digitaria ciliaris = assay: Test Example 5: herbicidal effect by foliage application, plastic box (symbol F); conditions: 320 g/ha, 3 weeks after application
How it was run: as §1

Scirpus juncoides [3] = assay: Test Example 2: herbicidal activity, application during weed generation in submerged conditions (symbol B); conditions: Table 23; application herbicide amount 320 g/ha; grade 0-5 by criteria of Test Example 1
How it was run: as §3

[4] = test system: Echinochloa oryzacola Vasing.; assay: Test Example 2: herbicidal activity, application during weed generation in submerged conditions (symbol A); conditions: Table 23; application herbicide amount 320 g/ha; grade 0-5 by criteria of Test Example 1
How it was run: as §3

Alopecurus myosuroides = assay: Test Example 5: herbicidal effect by foliage application, plastic box (symbol J); conditions: 320 g/ha, 3 weeks after application
How it was run: as §1

rice plant = assay: Test Example 5: effect on crop by foliage application, plastic box (symbol b); conditions: 320 g/ha, 3 weeks after application
How it was run: as §2

Galium spurium = assay: Test Example 5: herbicidal effect by foliage application, plastic box (symbol Q); conditions: 320 g/ha, 3 weeks after application
How it was run: as §1

[5] = test system: Echinochloa oryzacola Vasing.; assay: Test Example 1: herbicidal activity, application before weed generation in submerged conditions (symbol A); conditions: application herbicide amount 320 g/ha
How it was run: (§5)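 Application before weed emergence: an aqueous dilution of the emulsion formulation was poured onto the surface of 4 cm-deep floodwater on the day of sowing. Effect was judged after 3 weeks (greenhouse, 25–30 °C).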

[6] = test system: Echinochloa crus-galli var. crus-galli; assay: Test Example 5: herbicidal effect by foliage application, plastic box (symbol H); conditions: 320 g/ha, 3 weeks after application
How it was run: as §1

[7] = test system: Echinochloa crus-galli var. crus-galli; assay: Test Example 3: herbicidal effect by foliage application, Wagner pot (symbol H); conditions: application herbicide amount 320 g/ha
How it was run: as §4

wheat = assay: Test Example 5: effect on crop by foliage application, plastic box (symbol e); conditions: 320 g/ha, 3 weeks after application
How it was run: as §2

Chenopodium album = assay: Test Example 5: herbicidal effect by foliage application, plastic box (symbol O); conditions: 320 g/ha, 3 weeks after application
How it was run: as §1

Veronica persica = assay: Test Example 5: herbicidal effect by foliage application, plastic box (symbol R); conditions: 320 g/ha, 3 weeks after application
How it was run: as §1

Amaranthus retroflexus = assay: Test Example 5: herbicidal effect by foliage application, plastic box (symbol N); conditions: 320 g/ha, 3 weeks after application
How it was run: as §1

Scirpus juncoides [8] = assay: Test Example 1: herbicidal activity, application before weed generation in submerged conditions (symbol B); conditions: application herbicide amount 320 g/ha
How it was run: as §5

Cyperus difformis = assay: Test Example 3: herbicidal effect by foliage application, Wagner pot (symbol E); conditions: application herbicide amount 320 g/ha
How it was run: as §4

Lolium multiflorum Lam. = assay: Test Example 5: herbicidal effect by foliage application, plastic box (symbol K); conditions: 320 g/ha, 3 weeks after application
How it was run: as §1

Monochoria vaginalis [9] = assay: Test Example 1: herbicidal activity, application before weed generation in submerged conditions (symbol C); conditions: application herbicide amount 320 g/ha
How it was run: as §5

beet = assay: Test Example 5: effect on crop by foliage application, plastic box (symbol f); conditions: 320 g/ha, 3 weeks after application
How it was run: as §2

CON=C(C)CC1CC(O)=C(c2c(C)cc(-c3ccc(SC)cc3)cc2C)C1=O (mixture of isomers) [6-030]
P: Stellaria media, herbicidal effect grade (Stellaria media): 0 (Herbicidal ratio of 5% or lower (almost no effect)) | M: Abutilon theophrasti, herbicidal effect grade (Abutilon theophrasti): 0 (Herbicidal ratio of 5% or lower (almost no effect)) | g: rapeseed, effect on crop grade (rapeseed): 3 (Herbicidal ratio of 40% or higher and lower than 70%) | Effect grade on crop, a: transplanted rice plant (transplanted rice plant): 2 (Herbicidal ratio of 20% or higher and lower than 40%) | d: soybean, effect on crop grade (soybean): 0 (Herbicidal ratio of 5% or lower (almost no effect)) | effect on crop b (directly sowed rice plant), grade 0-5 [1]: 2 (Herbicidal ratio of 20% or higher and lower than 40%) | L: Apera spica-venti, herbicidal effect grade (Apera spica-venti): 0 (Herbicidal ratio of 5% or lower (almost no effect)) | Herbicidal effect grade, C: Monochoria vaginalis (Monochoria vaginalis [2]): 0 (Herbicidal ratio of 5% or lower (almost no effect)) | G: Setaria viridis, herbicidal effect grade (Setaria viridis): 4 (Herbicidal ratio of 70% or higher and lower than 90%) | I: Avena fatua, herbicidal effect grade (Avena fatua): 0 (Herbicidal ratio of 5% or lower (almost no effect)) | herbicidal effect on D (Leptochloa chinensis), grade 0-5 (Leptochloa chinensis): 5 (Herbicidal ratio of 90% or more (almost completely withered)) | c: corn, effect on crop grade (corn): 0 (Herbicidal ratio of 5% or lower (almost no effect)) | F: Digitaria ciliaris, herbicidal effect grade (Digitaria ciliaris): 4 (Herbicidal ratio of 70% or higher and lower than 90%) | Herbicidal effect grade, B: Scirpus juncoides (Scirpus juncoides [3]): 0 (Herbicidal ratio of 5% or lower (almost no effect)) | Herbicidal effect grade, A: Echinochloa oryzacola Vasing. [4]: 2 (Herbicidal ratio of 20% or higher and lower than 40%) | J: Alopecurus myosuroides, herbicidal effect grade (Alopecurus myosuroides): 1 (Herbicidal ratio of 5% or higher and lower than 20%) | b: directly sowed rice plant, effect on crop grade (rice plant): 1 (Herbicidal ratio of 5% or higher and lower than 20%) | Q: Galium spurium, herbicidal effect grade (Galium spurium): 0 (Herbicidal ratio of 5% or lower (almost no effect)) | Herbicidal effect grade, A: Echinochloa oryzacola Vasing. [5]: 3 (Herbicidal ratio of 40% or higher and lower than 70%) | H: Echinochloa crus-galli var. crus-galli, herbicidal effect grade [6]: 1 (Herbicidal ratio of 5% or higher and lower than 20%) | herbicidal effect on H (Echinochloa crus-galli var. crus-galli), grade 0-5 [7]: 4 (Herbicidal ratio of 70% or higher and lower than 90%) | e: wheat, effect on crop grade (wheat): 0 (Herbicidal ratio of 5% or lower (almost no effect)) | O: Chenopodium album, herbicidal effect grade (Chenopodium album): 0 (Herbicidal ratio of 5% or lower (almost no effect)) | R: Veronica persica, herbicidal effect grade (Veronica persica): 0 (Herbicidal ratio of 5% or lower (almost no effect)) | N: Amaranthus retroflexus, herbicidal effect grade (Amaranthus retroflexus): 0 (Herbicidal ratio of 5% or lower (almost no effect)) | Herbicidal effect grade, B: Scirpus juncoides (Scirpus juncoides [8]): 0 (Herbicidal ratio of 5% or lower (almost no effect)) | herbicidal effect on E, grade 0-5 (Cyperus difformis): 0 (Herbicidal ratio of 5% or lower (almost no effect)) | K: Lolium multiflorum Lam., herbicidal effect grade (Lolium multiflorum Lam.): 1 (Herbicidal ratio of 5% or higher and lower than 20%) | Herbicidal effect grade, C: Monochoria vaginalis (Monochoria vaginalis [9]): 0 (Herbicidal ratio of 5% or lower (almost no effect)) | f: beet, effect on crop grade (beet): 0 (Herbicidal ratio of 5% or lower (almost no effect))

CON=C(C)CC1CC(O)=C(c2c(C)cc(Oc3ccc(C(F)(F)F)cn3)cc2C)C1=O (mixture of isomers) [6-054]
P: Stellaria media, herbicidal effect grade (Stellaria media): 0 (Herbicidal ratio of 5% or lower (almost no effect)) | M: Abutilon theophrasti, herbicidal effect grade (Abutilon theophrasti): 0 (Herbicidal ratio of 5% or lower (almost no effect)) | g: rapeseed, effect on crop grade (rapeseed): 1 (Herbicidal ratio of 5% or higher and lower than 20%) | Effect grade on crop, a: transplanted rice plant (transplanted rice plant): 2 (Herbicidal ratio of 20% or higher and lower than 40%) | d: soybean, effect on crop grade (soybean): 0 (Herbicidal ratio of 5% or lower (almost no effect)) | effect on crop b (directly sowed rice plant), grade 0-5 [1]: 5 (Herbicidal ratio of 90% or more (almost completely withered)) | L: Apera spica-venti, herbicidal effect grade (Apera spica-venti): 5 (Herbicidal ratio of 90% or more (almost completely withered)) | Herbicidal effect grade, C: Monochoria vaginalis (Monochoria vaginalis [2]): 0 (Herbicidal ratio of 5% or lower (almost no effect)) | G: Setaria viridis, herbicidal effect grade (Setaria viridis): 5 (Herbicidal ratio of 90% or more (almost completely withered)) | I: Avena fatua, herbicidal effect grade (Avena fatua): 3 (Herbicidal ratio of 40% or higher and lower than 70%) | herbicidal effect on D (Leptochloa chinensis), grade 0-5 (Leptochloa chinensis): 5 (Herbicidal ratio of 90% or more (almost completely withered)) | c: corn, effect on crop grade (corn): 4 (Herbicidal ratio of 70% or higher and lower than 90%) | F: Digitaria ciliaris, herbicidal effect grade (Digitaria ciliaris): 4 (Herbicidal ratio of 70% or higher and lower than 90%) | Herbicidal effect grade, B: Scirpus juncoides (Scirpus juncoides [3]): 1 (Herbicidal ratio of 5% or higher and lower than 20%) | Herbicidal effect grade, A: Echinochloa oryzacola Vasing. [4]: 2 (Herbicidal ratio of 20% or higher and lower than 40%) | J: Alopecurus myosuroides, herbicidal effect grade (Alopecurus myosuroides): 5 (Herbicidal ratio of 90% or more (almost completely withered)) | b: directly sowed rice plant, effect on crop grade (rice plant): 3 (Herbicidal ratio of 40% or higher and lower than 70%) | Q: Galium spurium, herbicidal effect grade (Galium spurium): 0 (Herbicidal ratio of 5% or lower (almost no effect)) | Herbicidal effect grade, A: Echinochloa oryzacola Vasing. [5]: 1 (Herbicidal ratio of 5% or higher and lower than 20%) | H: Echinochloa crus-galli var. crus-galli, herbicidal effect grade [6]: 5 (Herbicidal ratio of 90% or more (almost completely withered)) | herbicidal effect on H (Echinochloa crus-galli var. crus-galli), grade 0-5 [7]: 5 (Herbicidal ratio of 90% or more (almost completely withered)) | e: wheat, effect on crop grade (wheat): 0 (Herbicidal ratio of 5% or lower (almost no effect)) | O: Chenopodium album, herbicidal effect grade (Chenopodium album): 4 (Herbicidal ratio of 70% or higher and lower than 90%) | R: Veronica persica, herbicidal effect grade (Veronica persica): 0 (Herbicidal ratio of 5% or lower (almost no effect)) | N: Amaranthus retroflexus, herbicidal effect grade (Amaranthus retroflexus): 0 (Herbicidal ratio of 5% or lower (almost no effect)) | Herbicidal effect grade, B: Scirpus juncoides (Scirpus juncoides [8]): 0 (Herbicidal ratio of 5% or lower (almost no effect)) | herbicidal effect on E, grade 0-5 (Cyperus difformis): 3 (Herbicidal ratio of 40% or higher and lower than 70%) | K: Lolium multiflorum Lam., herbicidal effect grade (Lolium multiflorum Lam.): 4 (Herbicidal ratio of 70% or higher and lower than 90%) | Herbicidal effect grade, C: Monochoria vaginalis (Monochoria vaginalis [9]): 0 (Herbicidal ratio of 5% or lower (almost no effect)) | f: beet, effect on crop grade (beet): 0 (Herbicidal ratio of 5% or lower (almost no effect))
